We go through 19 compounds from ChEMBL document CHEMBL5360622, “Leucettinibs, a Class of DYRK/CLK Kinase Inhibitors Inspired by the Marine Sponge Natural Product Leucettamine B” (J Med Chem, 2023).

In assay [1] the target is Dual specificity protein kinase CLK4 (Homo sapiens, UniProt Q9HAZ1).
Assay [2] addresses T1, Dual specificity tyrosine-phosphorylation-regulated kinase 4 (Homo sapiens, UniProt Q9NR20).
T1 sequence (Q9NR20 whole entry): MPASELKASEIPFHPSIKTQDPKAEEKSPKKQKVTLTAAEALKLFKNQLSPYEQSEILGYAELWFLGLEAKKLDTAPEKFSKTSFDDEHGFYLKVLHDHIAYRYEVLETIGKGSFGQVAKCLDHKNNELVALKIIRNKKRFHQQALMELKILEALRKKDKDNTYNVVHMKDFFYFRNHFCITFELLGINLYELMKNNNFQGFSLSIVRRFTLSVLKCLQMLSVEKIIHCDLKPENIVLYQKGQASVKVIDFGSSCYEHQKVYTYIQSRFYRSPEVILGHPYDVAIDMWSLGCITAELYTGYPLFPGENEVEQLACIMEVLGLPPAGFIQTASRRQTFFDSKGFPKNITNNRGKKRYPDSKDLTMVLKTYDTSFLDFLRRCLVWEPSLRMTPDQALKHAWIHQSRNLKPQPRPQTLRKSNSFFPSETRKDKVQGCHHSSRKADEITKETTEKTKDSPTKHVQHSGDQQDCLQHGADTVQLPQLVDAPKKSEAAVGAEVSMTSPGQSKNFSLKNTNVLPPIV

The target of assay [3] is Cyclin-dependent kinase 5/CDK5 activator 1 (Homo sapiens, UniProt Q00535). In kind it is cell-based, Sf9.
Assay [4] deals with Dual specificity protein kinase CLK2 (Homo sapiens, UniProt P49760).
Assay [5] has as its target Casein kinase I isoform epsilon (Homo sapiens, UniProt P49674).
For assay [6], the target named is Glycogen synthase kinase-3 beta (Homo sapiens, UniProt P49841). The class given is cell-based, Sf9.
In assay [7] the target is T2, Dual specificity tyrosine-phosphorylation-regulated kinase 2 (Homo sapiens, UniProt Q92630).
T2 sequence (Q92630 whole entry): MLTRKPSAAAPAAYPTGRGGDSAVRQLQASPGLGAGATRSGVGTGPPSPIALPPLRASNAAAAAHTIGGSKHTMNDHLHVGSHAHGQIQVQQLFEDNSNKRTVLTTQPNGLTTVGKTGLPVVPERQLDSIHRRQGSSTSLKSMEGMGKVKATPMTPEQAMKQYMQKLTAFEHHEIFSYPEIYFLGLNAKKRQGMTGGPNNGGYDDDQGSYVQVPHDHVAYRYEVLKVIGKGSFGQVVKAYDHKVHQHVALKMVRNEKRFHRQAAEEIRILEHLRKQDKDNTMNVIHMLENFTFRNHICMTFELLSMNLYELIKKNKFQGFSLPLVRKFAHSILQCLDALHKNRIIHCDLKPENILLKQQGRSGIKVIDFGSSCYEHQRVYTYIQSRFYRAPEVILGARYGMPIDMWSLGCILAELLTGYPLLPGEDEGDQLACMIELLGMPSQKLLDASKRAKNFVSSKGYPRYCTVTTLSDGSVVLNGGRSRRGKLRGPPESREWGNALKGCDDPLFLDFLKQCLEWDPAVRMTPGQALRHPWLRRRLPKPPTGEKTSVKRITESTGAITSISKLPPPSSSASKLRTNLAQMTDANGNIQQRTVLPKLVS

For assay [8], the target named is Dual specificity protein kinase CLK3 (Homo sapiens, UniProt P49761). In kind it is cell-based, Sf9.
For assay [9], the target named is T3, Dual specificity tyrosine-phosphorylation-regulated kinase 3 (Homo sapiens, UniProt O43781).
T3 sequence (O43781 whole entry): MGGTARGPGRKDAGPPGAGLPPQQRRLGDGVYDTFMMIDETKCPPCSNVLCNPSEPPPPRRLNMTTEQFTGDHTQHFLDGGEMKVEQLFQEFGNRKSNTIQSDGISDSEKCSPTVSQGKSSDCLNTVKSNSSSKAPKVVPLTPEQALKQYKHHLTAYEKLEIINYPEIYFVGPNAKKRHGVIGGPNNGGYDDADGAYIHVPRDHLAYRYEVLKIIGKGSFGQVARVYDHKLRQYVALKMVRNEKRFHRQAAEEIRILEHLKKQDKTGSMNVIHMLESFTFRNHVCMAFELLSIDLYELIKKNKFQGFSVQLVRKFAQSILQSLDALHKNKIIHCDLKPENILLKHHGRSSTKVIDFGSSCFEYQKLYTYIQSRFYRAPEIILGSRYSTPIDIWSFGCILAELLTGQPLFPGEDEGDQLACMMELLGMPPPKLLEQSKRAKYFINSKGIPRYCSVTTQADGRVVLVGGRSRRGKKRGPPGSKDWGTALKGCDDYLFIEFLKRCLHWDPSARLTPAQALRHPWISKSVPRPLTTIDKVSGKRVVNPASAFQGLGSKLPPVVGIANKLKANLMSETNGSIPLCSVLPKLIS

The IC50 is the concentration at which inhibition is half-maximal. A higher IC50 goes with weaker potency.

The structures appear in SMILES notation.

Sequence of Glycogen synthase kinase-3 beta (P49841 whole entry): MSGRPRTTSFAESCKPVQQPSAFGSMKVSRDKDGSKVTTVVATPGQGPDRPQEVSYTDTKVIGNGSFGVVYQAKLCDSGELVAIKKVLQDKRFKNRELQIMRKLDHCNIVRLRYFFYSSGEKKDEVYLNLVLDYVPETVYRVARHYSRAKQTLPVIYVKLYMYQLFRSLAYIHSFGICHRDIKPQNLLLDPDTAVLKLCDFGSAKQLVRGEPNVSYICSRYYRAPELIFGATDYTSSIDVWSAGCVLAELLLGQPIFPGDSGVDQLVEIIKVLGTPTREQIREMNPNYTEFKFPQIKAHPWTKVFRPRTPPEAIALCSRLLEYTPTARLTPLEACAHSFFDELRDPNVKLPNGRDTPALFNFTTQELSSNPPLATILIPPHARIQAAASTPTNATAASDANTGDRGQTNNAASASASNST
Sequence of Dual specificity protein kinase CLK3 (P49761 whole entry): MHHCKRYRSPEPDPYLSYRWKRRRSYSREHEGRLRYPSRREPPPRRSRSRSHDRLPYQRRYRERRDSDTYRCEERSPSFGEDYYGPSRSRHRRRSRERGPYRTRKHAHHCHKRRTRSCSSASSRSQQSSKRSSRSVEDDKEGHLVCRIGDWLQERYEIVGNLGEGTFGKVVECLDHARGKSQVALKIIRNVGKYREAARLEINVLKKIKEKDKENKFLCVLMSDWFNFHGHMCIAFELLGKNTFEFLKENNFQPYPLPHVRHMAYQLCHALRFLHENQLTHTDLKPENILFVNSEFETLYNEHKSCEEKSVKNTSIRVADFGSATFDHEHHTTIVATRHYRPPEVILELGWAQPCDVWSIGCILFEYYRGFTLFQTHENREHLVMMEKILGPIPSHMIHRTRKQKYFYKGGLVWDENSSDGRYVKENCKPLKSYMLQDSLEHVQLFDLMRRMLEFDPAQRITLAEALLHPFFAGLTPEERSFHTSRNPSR
Sequence of Cyclin-dependent kinase 5/CDK5 activator 1 (Q00535 whole entry): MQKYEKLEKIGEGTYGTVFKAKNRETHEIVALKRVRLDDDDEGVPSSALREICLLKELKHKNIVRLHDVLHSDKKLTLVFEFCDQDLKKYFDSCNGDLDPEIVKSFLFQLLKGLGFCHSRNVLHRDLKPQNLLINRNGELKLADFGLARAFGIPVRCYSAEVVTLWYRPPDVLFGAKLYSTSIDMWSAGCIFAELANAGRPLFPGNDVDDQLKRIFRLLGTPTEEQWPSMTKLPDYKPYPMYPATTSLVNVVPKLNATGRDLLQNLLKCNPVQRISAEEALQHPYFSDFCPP
Sequence of Cyclin-dependent kinase 5/CDK5 activator 1 (Q15078 whole entry, further chain): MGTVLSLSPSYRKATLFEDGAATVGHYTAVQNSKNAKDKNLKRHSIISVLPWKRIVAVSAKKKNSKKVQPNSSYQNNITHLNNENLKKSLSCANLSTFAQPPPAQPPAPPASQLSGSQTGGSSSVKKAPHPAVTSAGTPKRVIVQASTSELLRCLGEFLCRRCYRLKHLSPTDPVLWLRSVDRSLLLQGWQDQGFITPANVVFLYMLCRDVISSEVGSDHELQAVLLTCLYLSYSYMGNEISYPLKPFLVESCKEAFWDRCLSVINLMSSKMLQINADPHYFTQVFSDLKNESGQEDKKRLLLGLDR
Sequence of Dual specificity protein kinase CLK2 (P49760 whole entry, canonical isoform): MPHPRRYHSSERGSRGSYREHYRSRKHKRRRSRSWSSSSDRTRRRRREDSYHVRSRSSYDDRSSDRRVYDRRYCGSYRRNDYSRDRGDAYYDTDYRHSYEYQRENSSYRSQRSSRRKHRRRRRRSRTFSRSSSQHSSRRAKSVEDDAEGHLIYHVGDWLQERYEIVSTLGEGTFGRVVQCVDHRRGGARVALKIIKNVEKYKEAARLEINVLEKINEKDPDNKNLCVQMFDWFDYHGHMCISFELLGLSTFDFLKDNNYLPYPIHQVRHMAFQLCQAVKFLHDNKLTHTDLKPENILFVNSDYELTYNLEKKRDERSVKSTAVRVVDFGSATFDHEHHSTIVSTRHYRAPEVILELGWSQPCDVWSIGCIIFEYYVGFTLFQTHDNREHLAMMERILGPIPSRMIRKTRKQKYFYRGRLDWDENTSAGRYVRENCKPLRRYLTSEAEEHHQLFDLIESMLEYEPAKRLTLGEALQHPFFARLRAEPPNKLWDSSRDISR
Sequence of Casein kinase I isoform epsilon (P49674 whole entry, canonical isoform): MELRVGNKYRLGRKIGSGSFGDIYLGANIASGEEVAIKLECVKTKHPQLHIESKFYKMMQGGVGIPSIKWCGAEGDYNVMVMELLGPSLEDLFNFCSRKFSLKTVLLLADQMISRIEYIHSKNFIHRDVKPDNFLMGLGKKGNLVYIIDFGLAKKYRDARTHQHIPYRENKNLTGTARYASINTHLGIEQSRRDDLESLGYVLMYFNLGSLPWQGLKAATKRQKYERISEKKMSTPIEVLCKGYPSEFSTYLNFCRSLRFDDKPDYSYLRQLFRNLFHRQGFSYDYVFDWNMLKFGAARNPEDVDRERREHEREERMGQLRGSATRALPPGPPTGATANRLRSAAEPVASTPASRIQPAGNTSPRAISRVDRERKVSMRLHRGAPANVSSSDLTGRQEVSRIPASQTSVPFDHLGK
Sequence of Dual specificity protein kinase CLK4 (Q9HAZ1 whole entry): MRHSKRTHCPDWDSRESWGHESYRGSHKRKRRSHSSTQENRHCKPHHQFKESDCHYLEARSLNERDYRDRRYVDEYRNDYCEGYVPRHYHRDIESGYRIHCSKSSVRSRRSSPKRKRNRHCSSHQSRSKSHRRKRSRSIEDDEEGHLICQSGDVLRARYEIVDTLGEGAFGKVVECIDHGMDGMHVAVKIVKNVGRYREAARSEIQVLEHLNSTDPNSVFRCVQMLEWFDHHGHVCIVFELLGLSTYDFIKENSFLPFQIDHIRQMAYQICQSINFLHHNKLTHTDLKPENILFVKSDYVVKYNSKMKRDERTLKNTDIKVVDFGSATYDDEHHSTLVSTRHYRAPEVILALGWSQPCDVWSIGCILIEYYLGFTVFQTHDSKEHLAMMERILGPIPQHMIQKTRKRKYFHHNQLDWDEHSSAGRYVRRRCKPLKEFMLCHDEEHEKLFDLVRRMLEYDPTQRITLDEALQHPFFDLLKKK

Take `O=C1NC(NCCc2ccccn2)=N/C1=C\c1ccc2ncsc2c1`: the IC50 is 34 nM in assay [1]; 2150 nM in assay [2]; above 10000 nM in assay [3]; 349 nM in assay [4]; above 10000 nM in [5]; 3710 nM in [6]. Besides, the results for the IC50 in assay [7] and in assay [8] were 1350 nM and 697 nM, respectively.

`CO[C@@H]1Cc2ccccc2[C@H]1NC1=N/C(=C\c2ccc3ncsc3c2)C(=O)N1` (racemic): the IC50 was 14 nM in assay [1]; above 10000 nM in [3]; 50 nM in assay [4]; above 10000 nM in assay [5]; 741 nM in assay [9]; 1270 nM in assay [6]. The IC50 in assay [7] came out at 235 nM; in assay [8], 848 nM.

For `O=C1NC(N[C@@H](CO)CC2CCCCC2)=N/C1=C\c1ccc2ncsc2c1`, the IC50 in [1] is 26 nM; in [2], 3120 nM; in assay [3] it was above 10000 nM; in [4], 100 nM; in [5], above 10000 nM; in [6], 3310 nM. The same compound yielded an IC50 in assay [8] of 4390 nM.

Turning to `CC(=O)OC12CC3CC(CC(NC4=N/C(=C\c5ccc6ncsc6c5)C(=O)N4)(C3)C1)C2`, the IC50 in assay [1] was 19 nM; in [2], 597 nM; in assay [3] it was 4660 nM; in assay [4] it was 14 nM; in [5], above 10000 nM; in assay [6], 2440 nM. Further, the IC50 in [7] is 145 nM; in [8] it was 1660 nM.

Take `O=C1NC(N[C@@H]2c3ccccc3C[C@H]2O)=N/C1=C\c1ccc2ncsc2c1`: the IC50 in assay [1] is 11 nM; in assay [2], 180 nM; in assay [3], above 10000 nM; in assay [5], above 10000 nM; in [6], above 10000 nM; in [7], 390 nM. Besides, the IC50 in assay [8] worked out at 2040 nM.

As to `O=C1NC(N[C@H]2CN3CCC2CC3)=N/C1=C\c1ccc2ncsc2c1`, the IC50 in [1] is 11 nM; in [3] it was above 10000 nM; in [4], 40 nM; in assay [9], 199 nM; in assay [6], above 10000 nM; in [8] it was 1750 nM.

As to `O=C1NC(Nc2ncccn2)=N/C1=C\c1ccc2ncsc2c1`, the 50% inhibitory concentration (IC50) is 34 nM in [1]; above 10000 nM in assay [3]; 627 nM in [4]; above 10000 nM in assay [5]; 4030 nM in [9]; 7740 nM in [6]. The IC50 in [7] was determined as 2390 nM; in assay [8] it was 2260 nM.

Take `Cc1ccc(CNC2=N/C(=C\c3ccc4ncsc4c3)C(=O)N2)cc1C`: the IC50 is 14 nM in assay [1]; above 10000 nM in assay [3]; 31 nM in [4]; above 10000 nM in [5]; above 10000 nM in assay [9]; above 10000 nM in assay [6]. The IC50 in [7] is above 10000 nM; in assay [8] it was 1240 nM.

In the case of `O=C1NC(NCc2nc3ccccc3s2)=N/C1=C\c1ccc2ncsc2c1`, the IC50 in [1] is 71 nM; in assay [2] it was above 10000 nM; in [3] it was above 10000 nM; in assay [5], above 10000 nM; in assay [9], above 10000 nM; in assay [6], 9030 nM. Besides, the IC50 in assay [7] is above 10000 nM; in assay [8] it was 7010 nM.

In the case of `O=C1NC(N[C@@H]2CN3CCC2CC3)=N/C1=C\c1ccc2ncsc2c1`, the IC50 in [1] is 169 nM; in assay [3] it was above 10000 nM; in assay [4] it was 1170 nM; in assay [9], 483 nM; in assay [6], above 10000 nM; in [8], 4350 nM.

On to `CN1CCC2(CC1)CC(NC1=N/C(=C\c3ccc4ncsc4c3)C(=O)N1)C2`, for which the 50% inhibitory concentration (IC50) in assay [1] was 107 nM; in [3], above 10000 nM; in assay [4], 851 nM; in [5] it was above 10000 nM; in [9], 403 nM; in assay [6], above 10000 nM. Also, the IC50 in assay [7] turned out to be 4470 nM; in [8] it was 7460 nM.

In the case of `O=C1NC(N[C@@H](CO)Cc2ccccc2)=N/C1=C\c1ccc2ncsc2c1`, the IC50 in assay [1] is 14 nM; in assay [2], 1150 nM; in assay [3], above 10000 nM; in assay [4], 90 nM; in [5], above 10000 nM; in [6] it was 2740 nM. The IC50 worked out at 886 nM in assay [7] and 295 nM in assay [8].

Turning to `Cc1cnc(CNC2=N/C(=C\c3ccc4ncsc4c3)C(=O)N2)cn1`, the IC50 was 32 nM in [1]; 8330 nM in assay [2]; above 10000 nM in assay [3]; 303 nM in [4]; above 10000 nM in [5]; 9030 nM in assay [6]. For the same compound, the IC50 in [7] was found to be 3950 nM; in assay [8], 4140 nM.

In the case of `CO[C@H]1CC[C@H](NC2=N/C(=C\c3ccc4ncsc4c3)C(=O)N2)CC1`, the IC50 was 24 nM in assay [1]; 2600 nM in [2]; above 10000 nM in assay [3]; above 10000 nM in assay [5]; 1900 nM in assay [9]; 13000 nM in [6]. Further, the results for the IC50 in [7] and in assay [8] were 2300 nM and 880 nM, respectively.

As for `CO[C@H]1Cc2ccccc2[C@H]1NC1=N/C(=C\c2ccc3ncsc3c2)C(=O)N1` (racemic), the IC50 in assay [1] is 100 nM; in [3], above 10000 nM; in assay [4] it was 3480 nM; in assay [5] it was above 10000 nM; in assay [9], above 10000 nM; in assay [6] it was above 10000 nM. In addition, the IC50 in assay [7] was 5170 nM; in assay [8], above 10000 nM.

On to `CN1CCC(NC2=N/C(=C\c3ccc4ncsc4c3)C(=O)N2)C1=O` (racemic), for which the IC50 is 12 nM in [1]; 4890 nM in [2]; above 10000 nM in assay [3]; above 10000 nM in assay [5]; 2320 nM in assay [9]; above 10000 nM in [6]. Also, the IC50 in assay [7] was 2810 nM; in [8], 2700 nM.

With `COC(=O)C1(NC2=N/C(=C\c3ccc4ncsc4c3)C(=O)N2)C2CC3CC(C2)CC1C3` (stereo not given), the IC50 is 161 nM in assay [1]; 1740 nM in assay [2]; 3290 nM in assay [3]; 531 nM in assay [4]; above 10000 nM in assay [5]; 659 nM in assay [6]. For the same compound, the IC50 in [7] was determined as 702 nM; in [8], 167 nM.

`Cc1nc2ccc(/C=C3\N=C(NC4CCCCC4)NC3=O)cc2s1`: the 50% inhibitory concentration (IC50) in assay [1] is 351 nM; in assay [2], above 10000 nM; in assay [3] it was above 10000 nM; in assay [5], above 10000 nM; in assay [6] it was above 10000 nM; in assay [7], 4710 nM. This compound also registered an IC50 in assay [8] of 5040 nM.

Consider `CN1CCC(NC2=N/C(=C\c3ccc4ncsc4c3)C(=O)N2)CC1`, for which the concentration for half-maximal inhibition (IC50) is 78 nM in assay [1]; above 10000 nM in assay [2]; above 10000 nM in assay [3]; above 10000 nM in assay [5]; 647 nM in assay [9]; above 10000 nM in assay [6]. Further, the values for the IC50 in assay [7] and in assay [8] were 7830 nM and 3860 nM, respectively.
